Assay results from US6297266A, “Thiazole derivatives” (Hoffmann-La Roche Inc., priority 1998, dated 2001).

Biological target: T1, vitronectin receptor αvβ3 (Homo sapiens, UniProt P05106+P06756)
T1 construct: Human placenta is stored at -80° C. immediately after its excision; from tissue; host or cells: human placenta
Experiment: inhibition of the binding of fibrinogen to vitronectin receptor αvβ3 (ELISA)
Conditions: fibrinogen binding to immobilized αvβ3 from human placenta, pH 7.4, read-out: VNR IC50
Description: The inhibition of the binding of adhesive proteins such as e.g. fibrinogen to vitronectin receptors (such as e.g. αvβ3, αvβ5, αvβ6, αvβ8, etc. or to the fibrinogen receptor (αIIbβ3) by compounds of formula (I) can be determined as described by L. Alig et al. (J.Med.Chem. 1992, 35, 4393-4407).
In detail thereto, the wells of microtiter plates (Nunc-Immunoplate MaxiSorp) were coated overnight at 4° C. with the vitronectin receptor αvβ3 (from human placenta, 100 μl/well) in a buffer system with 150 mmol/1 NaCl, 1 mmol/CaCl2, 1 mmol/1 MgCl2, 0.0005% Triton X-100 and 20 mmol/1 Tris HCl, pH 7.4. The non-specific binding sites were blocked by incubation with 3.5% bovine serum albumin (BSA from Fluka) at 20° C. for at least 1 h. Before the beginning of the test the plates were washed in each case once with 150 mmol/1 NaCl, 1 mmol/1 CaCl2, 1 mmol/1 MgCl2 and 20 mmol/1 Tris HCl, pH 7.4 (buffer A). The thus-coated plates can be stored for at least 2 months in the presence of 0.05% NaN3 (in buffer A) at 4° C. in a humidity chamber without loss of binding activity. Fibrinogen (IMCO, free from fibronectin) was diluted to 1.5 μg/ml in buffer A in the presence of 1% BSA. The wells coated with the receptor were incubated with fibrinogen (100 μl/well) overnight at room temperature in the absence of or in the presence of increasing concentrations of RGDS (as the reference substance, H-Arg-Gly-Asp-Ser-OH) or the compounds to be measured. Non-bound fibrinogen was removed by three-fold washing with buffer A, bound fibrinogen was detected by an enzyme linked immunosorbent assay (ELISA) procedure. Antibodies of rabbits directed against human fibrinogen (Dakopatts, Denmark), diluted in buffer A in the presence of 0.1% BSA, were added at room temperature for 1 h., followed by incubation with biotinylated antibodies directed against rabbit immunoglobulin (Amersham) for 30 min. […] After addition of the peroxidase substrate ABTS (2,2'-azino-bis(3-ethylbenzothiazoline-6-sulphonic acid), Boehringer Mannheim) the enzyme activity was measured with a multichannel photometer (UVmax, Molecular Devices). […]

T1 sequence (P06756 31-889 limits assumed): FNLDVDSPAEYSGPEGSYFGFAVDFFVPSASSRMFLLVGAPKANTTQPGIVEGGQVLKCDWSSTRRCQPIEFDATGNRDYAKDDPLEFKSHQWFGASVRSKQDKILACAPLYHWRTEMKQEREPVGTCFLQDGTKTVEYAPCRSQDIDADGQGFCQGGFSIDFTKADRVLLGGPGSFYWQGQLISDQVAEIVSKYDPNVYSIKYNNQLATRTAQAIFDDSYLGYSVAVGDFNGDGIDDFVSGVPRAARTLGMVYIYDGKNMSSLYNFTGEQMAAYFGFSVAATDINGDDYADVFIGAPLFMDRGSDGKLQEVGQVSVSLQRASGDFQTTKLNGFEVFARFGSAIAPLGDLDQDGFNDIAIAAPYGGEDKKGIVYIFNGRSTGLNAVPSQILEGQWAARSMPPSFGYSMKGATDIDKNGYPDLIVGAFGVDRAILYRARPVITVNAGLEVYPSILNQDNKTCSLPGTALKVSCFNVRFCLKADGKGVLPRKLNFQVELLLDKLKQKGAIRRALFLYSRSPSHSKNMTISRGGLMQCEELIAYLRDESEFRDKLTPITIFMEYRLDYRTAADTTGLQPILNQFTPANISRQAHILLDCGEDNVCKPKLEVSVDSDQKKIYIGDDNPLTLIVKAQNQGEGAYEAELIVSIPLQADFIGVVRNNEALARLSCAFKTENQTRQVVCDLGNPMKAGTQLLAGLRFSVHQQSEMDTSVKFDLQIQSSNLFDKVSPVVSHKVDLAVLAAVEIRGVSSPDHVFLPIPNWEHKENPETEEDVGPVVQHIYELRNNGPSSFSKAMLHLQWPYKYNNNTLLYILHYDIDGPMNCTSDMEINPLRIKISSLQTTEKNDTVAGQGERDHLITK
T1 sequence (P06756 891-1048 limits assumed): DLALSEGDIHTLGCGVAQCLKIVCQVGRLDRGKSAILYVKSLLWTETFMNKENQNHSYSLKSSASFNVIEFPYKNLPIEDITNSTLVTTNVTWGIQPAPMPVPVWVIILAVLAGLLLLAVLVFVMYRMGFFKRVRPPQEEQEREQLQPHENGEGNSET
T1 sequence (P05106 27-788): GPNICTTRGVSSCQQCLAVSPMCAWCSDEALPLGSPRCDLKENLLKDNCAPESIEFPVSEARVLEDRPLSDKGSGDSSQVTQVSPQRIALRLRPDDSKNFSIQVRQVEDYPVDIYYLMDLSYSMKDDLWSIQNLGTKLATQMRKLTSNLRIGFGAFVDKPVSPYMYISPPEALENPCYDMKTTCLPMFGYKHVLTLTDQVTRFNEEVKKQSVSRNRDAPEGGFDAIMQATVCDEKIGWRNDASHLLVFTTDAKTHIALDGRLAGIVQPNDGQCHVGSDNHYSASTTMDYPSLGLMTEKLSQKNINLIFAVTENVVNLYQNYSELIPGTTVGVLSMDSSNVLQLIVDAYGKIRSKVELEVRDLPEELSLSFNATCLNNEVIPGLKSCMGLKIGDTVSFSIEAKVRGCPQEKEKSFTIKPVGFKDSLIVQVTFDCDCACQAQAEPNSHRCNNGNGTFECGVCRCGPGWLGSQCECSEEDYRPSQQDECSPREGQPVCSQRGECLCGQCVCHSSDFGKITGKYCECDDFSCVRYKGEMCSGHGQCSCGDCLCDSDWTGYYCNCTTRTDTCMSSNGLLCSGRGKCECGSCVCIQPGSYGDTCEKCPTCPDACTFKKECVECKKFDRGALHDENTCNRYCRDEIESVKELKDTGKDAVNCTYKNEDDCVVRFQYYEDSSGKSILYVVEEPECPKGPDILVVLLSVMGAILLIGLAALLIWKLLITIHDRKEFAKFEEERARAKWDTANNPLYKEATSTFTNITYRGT

First: O=C(O)COc1ccc(NC(=O)c2csc(NC(=O)NCc3ccccc3)n2)cc1C(=O)O [5-{[2-(3-benzyl-ureido)-thiazole-4-carbonyl]-amino}-2-carboxymethoxy-benzoic acid]
Second: COc1cc(NC(=O)c2csc(NC(=O)NCc3ccccc3)n2)ccc1OCC(=O)O [(4-{[2-(3-benzyl-ureido)-thiazole-4-carbonyl]-amino}-2-methoxy-phenoxy)-acetic acid]
The IC50 of the first is 6.5-fold higher: 1.3 nM for the first, 0.2 nM for the second. The second is the more potent here.

With `O=C(O)COc1ccc(NC(=O)c2csc(NC(=O)NCc3ccccc3)n2)cc1` [[4-[[2-(3-benzyl-ureido)-thiazole-4-carbonyl]-amino]-phenoxy]-acetic acid] the IC50 was 1 nM.
